According to patent publication US20220177459A1, “AROMATIC AMINE COMPOUND AND USE THEREOF IN PREPARATION OF AR AND BRD4 DUAL INHIBITORS AND REGULATORS” (HINOVA PHARMACEUTICALS INC., priority 2019, published 2022):

Columns and labels:
VCaP cells = test: Inhibition of proliferation of other prostate cancer cells: VCaP; format: cell-based; conditions: Homo sapiens, same method as LNCaP/AR
Procedure: (§1) 1) LNCaP/AR cells were subcultured in cell culture medium, and the cells in good growth condition were seeded in a 96-well plate, with 80 μL per well (i.e. 1000 cells per well), and cultured overnight in a 37° C., 5% CO2 cell incubator.
(§2) Immediately before use, the stock solution was diluted 3 times with DMSO, and then diluted as a 3-fold gradient to obtain 9 concentration gradients. Then, the compound of each concentration was diluted 200 times with the culture media (to ensure that the DMSO concentration in the culture system was 0.1%), and two multiple holes were set for each concentration. 20 μL of the diluted compound was added to the cell culture well (with a final concentration of 10 μM, 3.3 μM, 1.1 μM . . . ), and then shook gently to mix. In addition, three negative control wells with only cells and three blank control wells with only culture medium were included (6 wells being each added with DMSO diluted 200 times with 20 μL culture medium).
(§3) 1) After culturing for 6 days, 10 μL of CCK-8 was added to each well and continued culturing for 1 hour in a 37° C., 5% CO2 cell incubator.
(§4) 2) The absorbance (OD value) was measured at 450 nm using a multifunctional microplate reader.
(§5) 3) The data were analyzed by the Dose-response-inhibition equation in the software GraphPad Prism5, and the IC50 value was obtained.
(§6) 2. Biological determination of the inhibitory effect on the proliferation of other prostate cancer cells
(§7) The inhibitory activity of the compound according to the present invention on other drug-resistant prostate cancer cells was measured by the same method as described above, in which VCaP and 22RV1 cells were commercially available.

22RV1 cells = test: Inhibition of proliferation of other prostate cancer cells: 22RV1; format: cell-based; conditions: Homo sapiens, same method as LNCaP/AR
Procedure: as §1, §2, §3, §4, §5, §6, §7

LNCaP/AR cells = test: Inhibition of proliferation of prostate cancer cells LNCaP/AR (CCK-8); format: cell-based; conditions: 144 h, 6 days culture, CCK-8, OD 450 nm, read-out: IC50 (μM), inhibitory activity on prostate cancer cell LNCap/AR
Procedure: 1. Biological determination of the inhibitory effect on the proliferation of prostate cancer cells LNCaP/AR
Cell culture medium: RIPM1640 media, 10% FBS, 1% Pen Strep;
as §1
2) The drug was prepared with dimethylsulfoxide (DMSO) as a 10 mM stock solution.
as §2, §3, §4, §5

BRD4 (D1+D2) protein = biological target: T1, BRD4 (D1+D2) protein (Homo sapiens, UniProt O60885); test: HTRF binding to BRD4 (D1+D2) protein; conditions: BRD4(1,2), 2 h at room temperature, read-out: IC50 (μM), inhibitory activity on BRD4
T1 construct: purchased BPS 31044
Excerpt: Homogeneous time-resolved fluorescence technique (HTRF) was used to detect the binding effect of compound to BRD4 (D1+D2) protein.
Experimental materials: • BRD4(1,2) (BPS, Cat. No. 31044), • I-CBP 112 (MCE, Cat. No. HY-19541), • (+)-JQ1 (BPS, Cat. No. 27402).
Using homogeneous time-resolved fluorescence method, the detection steps are as follows:
1. According to the layout of the detection plate, the test compound was gradiently diluted on the Echo plate, and the final dilution concentration of DMSO was 0.1%.
2. The compound or DMSO was transferred to the 384-well detection plate with the Echo automatic sampler.
3. Two-fold concentration of protein and peptide mixture was added to the detection plate.
4. Two-fold concentration of the detection mixture was added to the detection plate, and shook for 30 s.
5. Incubating for 2 h at room temperature.
6. The fluorescence signal was read on the Envision multifunctional microplate reader (excitation wavelength at 340 nm; emission wavelength at 615 nm and 665 nm).
1. The experimental data were entered into an Excel file, and equation (1) was used to calculate the inhibition rate:
Inh %=(Max−Signal)/(Max−Min)*100 Equation (1)
2. The obtained data were input into GraphPad software, and equation (2) was used to calculate the IC50 value.
Y=Bottom+(Top−Bottom)/(1+10^((LogIC50−X)*Hill Slope)) Equation (2)
wherein, Y axis is the inhibition rate, while X axis is the compound concentration.

androgen receptor (AR) = biological target: T2, androgen receptor (AR) (Homo sapiens, UniProt P10275); test: Inhibitory activity on the function of androgen receptor (AR), luciferase reporter in transfected cells; format: cell-based; conditions: transfected with AR and pGL4.36, testosterone 2 nM, Steady-Glo
T2 construct: host or cells: HEK293
T2 sequence (P10275 1-920): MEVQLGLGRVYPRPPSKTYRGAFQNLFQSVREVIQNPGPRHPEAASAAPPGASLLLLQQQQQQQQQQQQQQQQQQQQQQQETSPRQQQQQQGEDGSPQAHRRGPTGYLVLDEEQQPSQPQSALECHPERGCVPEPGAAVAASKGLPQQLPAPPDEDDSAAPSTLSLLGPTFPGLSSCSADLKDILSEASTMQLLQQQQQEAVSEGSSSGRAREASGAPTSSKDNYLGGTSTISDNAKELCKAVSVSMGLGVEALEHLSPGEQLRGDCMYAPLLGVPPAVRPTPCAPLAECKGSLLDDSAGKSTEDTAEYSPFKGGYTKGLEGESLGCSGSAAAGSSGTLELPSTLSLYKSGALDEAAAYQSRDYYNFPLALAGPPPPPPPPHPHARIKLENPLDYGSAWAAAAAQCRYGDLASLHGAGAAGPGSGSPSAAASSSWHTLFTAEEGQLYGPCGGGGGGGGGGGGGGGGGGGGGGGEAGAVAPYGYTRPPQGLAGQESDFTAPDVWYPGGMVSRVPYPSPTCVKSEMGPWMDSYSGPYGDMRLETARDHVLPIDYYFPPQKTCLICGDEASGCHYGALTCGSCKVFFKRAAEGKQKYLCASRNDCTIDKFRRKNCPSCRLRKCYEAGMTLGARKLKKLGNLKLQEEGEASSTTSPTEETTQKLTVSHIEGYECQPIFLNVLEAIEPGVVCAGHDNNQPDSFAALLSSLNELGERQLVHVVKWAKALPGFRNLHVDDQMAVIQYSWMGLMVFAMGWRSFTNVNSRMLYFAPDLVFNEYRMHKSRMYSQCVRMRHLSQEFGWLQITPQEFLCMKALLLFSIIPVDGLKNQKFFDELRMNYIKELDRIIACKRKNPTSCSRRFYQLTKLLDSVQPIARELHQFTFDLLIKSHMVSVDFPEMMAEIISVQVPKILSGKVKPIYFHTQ
Procedure: Experimental Example 2 the Inhibitory Activity of the Compound According to the Present Invention on the Function of Androgen Receptor (AR)
Androgen receptor clone (Origene, Cat. No. RC235415)
pGL4.36 vector (Promega, Cat. No. E1360)
1) The cell suspension was diluted with the culture medium for seeding cells to a concentration of 4.0×10^5 cells/ml, for plating and adding transfection reagents.
2) The diluted cell suspension was inoculated into a cell culture plate, with 100 μL per well, and the plate was placed in a cell incubator and cultured overnight.
3) The transfection reagent was prepared as 10 μL/well, and added into the cell culture plate after 15 min at room temperature, then the plate was placed in a cell incubator and cultured overnight.
4) The compound was diluted by a 3-fold gradient with TECAN sampler, to obtain 8 concentration gradients, and the final DMSO concentration was 0.25%. The diluted compound was cultured in a 37° C. incubator for 30 min.
5) 250 nL of testosterone at a final concentration of 2 nM was added to the control well with an […] sampler, placed in a cell incubator, and cultured overnight.
6) Steady-Glo was added at 100 μL/well to the cell culture plate, and then the plate was left at room temperature for 15 min, followed by reading on Envision.
The data were analyzed according to the formula % Effect=(Sample value−LC)/(HC−LC)*100, using XL-fit software (provided by Business Solutions Ltd., version number XL fit 5.0). The inhibition rate of each compound against androgen receptor (AR) was calculated, and the half-inhibitory concentration IC50 of each compound against androgen receptor (AR) was further calculated.

Row | Structure (SMILES) | IC50 (VCaP cells) | IC50 (22RV1 cells) | IC50 (LNCaP/AR cells) | IC50 (BRD4 (D1+D2) protein) | IC50 (androgen receptor (AR))
1 | CCN(c1ccc(-n2cnc(C)c2)cc1)c1cc(-c2c(C)noc2C)ccc1C [Compound 26] | 1.16 µM | 4.08 µM | 1.14 µM |  | 
2 | CCN(c1ccc(-n2ccnn2)c(Br)c1)c1cc(-c2c(C)noc2C)ccc1C [Compound 45] | 0.75 µM | 7.75 µM | 0.82 µM | 1.9 µM | 1.7 µM
3 | CCN(c1ccc(-n2cnnc2)cc1)c1cc(-c2c(C)noc2C)ccc1C [Compound 34] | 1 µM | 2.58 µM | 0.95 µM |  | 
4 | CCN(c1ccc(C2(C#N)CC2)cc1)c1cc(-c2c(C)noc2C)ccc1C [Compound 111, 1-(4-((5-(3,5-dimethylisoxazol-4-)-2-methylphenyl)(ethyl)amino)phenyl)cyclopropanecarbonitrile] |  | 0.27 µM | 0.14 µM |  | 1.6 µM
5 | CCN(c1ccc(-n2ccnc2)c(Cl)c1)c1cc(-c2c(C)noc2C)ccc1C [Compound 30] | 2.27 µM | > 10 µM | 0.9 µM |  | 
6 | CCN(c1ccc(-n2ccnn2)cc1)c1cc(-c2c(C)noc2C)ccc1C [Compound 33] | 0.88 µM | 2.41 µM | 0.75 µM |  | 
7 | CCN(c1ccc(F)c(-n2ccnc2)c1)c1cc(-c2c(C)noc2C)ccc1C [Compound 83] | 1.27 µM | 5.2 µM |  | 6.7 µM | 0.83 µM
8 | CCN(c1ccc(-n2ccnc2)c(Br)c1)c1cc(-c2c(C)noc2C)ccc1C [Compound 31, N-(3-bromo-4-(1H-imidazol-1-yl)phenyl)-5-(3,5-dimethylisoxazol-4-yl)-N-ethyl-2-methylaniline] | 1.35 µM | 9.37 µM | 0.54 µM | 6.3 µM | 2.1 µM
9 | CCN(c1ccc(Br)cc1)c1cc(-c2c(C)noc2C)ccc1C [Compound 116] |  | 0.63 µM | 0.61 µM |  | 4.9 µM
10 | CCN(c1ccc(-n2ccnc2)c(F)c1)c1cc(-c2c(C)noc2C)ccc1C [Compound 29] | 1.22 µM | 5.6 µM | 0.49 µM |  | 0.45 µM
11 | CCN(c1ccc(-n2ccnc2)c(C(F)(F)F)c1)c1cc(-c2c(C)noc2C)ccc1C [Compound 32] | 0.98 µM | 3.5 µM | 1.4 µM |  | 
12 | CCN(c1ccc(-n2ccnc2C)cc1)c1cc(-c2c(C)noc2C)ccc1C [Compound 27] | 0.99 µM | 3.77 µM | 0.38 µM | 4.1 µM | 0.89 µM
13 | CCN(c1ccc(C#N)c(Cl)c1)c1cc(-c2c(C)nn(C)c2C)ccc1C [Compound 2] | 0.78 µM | 5.2 µM | 0.51 µM |  | 0.78 µM
14 | CCN(c1ccc(C#N)c(Cl)c1)c1cc(-c2c(C)noc2C)ccc1C [Compound 14] |  |  | 0.55 µM |  | 1.5 µM
